Values of other authors, collected in patent publication US20030124075A1, “Use of a composition containing at least one oxidation-sensitive hydrophilic active principle and at least one N-vinylimidazole polymer or copolymer” (L'OREAL, priority 2001, published 2003).

Key:
melanocytes = conditions: Pigment. Cell. Res., 13, 2000
[1] = J. Am. Acad. Dermatol., 1996, 34, 29-33
tyrosinase = target: T1, tyrosinase (Homo sapiens, UniProt P14679); conditions: J. Soc. Cosmet. Chem., 42, 1991
T1 sequence (P14679 19-529): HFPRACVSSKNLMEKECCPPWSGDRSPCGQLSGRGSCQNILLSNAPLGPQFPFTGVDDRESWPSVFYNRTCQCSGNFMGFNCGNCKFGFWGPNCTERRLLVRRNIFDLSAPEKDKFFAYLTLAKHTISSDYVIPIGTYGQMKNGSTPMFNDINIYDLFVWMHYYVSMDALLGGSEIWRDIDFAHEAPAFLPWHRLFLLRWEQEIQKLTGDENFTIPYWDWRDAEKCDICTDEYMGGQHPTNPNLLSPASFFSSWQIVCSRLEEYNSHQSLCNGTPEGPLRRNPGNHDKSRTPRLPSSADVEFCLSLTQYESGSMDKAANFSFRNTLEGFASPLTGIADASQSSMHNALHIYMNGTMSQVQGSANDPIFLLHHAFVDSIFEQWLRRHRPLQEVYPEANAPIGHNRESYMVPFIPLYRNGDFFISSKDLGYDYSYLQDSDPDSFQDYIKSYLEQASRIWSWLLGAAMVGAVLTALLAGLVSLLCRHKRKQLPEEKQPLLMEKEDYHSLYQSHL

O=C1O[C@H]([C@@H](O)CO)C([O-])=C1OP(=O)([O-])[O-].O=C1O[C@H]([C@@H](O)CO)C([O-])=C1OP(=O)([O-])[O-].[Mg+2].[Mg+2].[Mg+2] [magnesium ascorbyl phosphate]
dendricity of melanocytes (melanocytes): can reduce the dendricity of melanocytes | bioavailability [1]: very low

O=C1O[C@H]([C@@H](O)CO)C(O)=C1O [ascorbic acid]
inhibiting effect on tyrosinase (tyrosinase): has been demonstrated
